From US10350213B2 (AI Therapeutics, Inc., priority 2015, dated 2019)
Like-named read-outs stand apart in the source and are kept apart here.

What was measured:
[1] = tested on: PC-3 (Human prostate cancer); assay: CellTiterGlo cell viability assay; type: cell-based
[2] = tested on: non-cancer (normal) cells; assay: Cell viability assay, non-cancer (normal) cells; type: cell-based
Description: This is exemplified in FIG. 2A for the HCT116 colorectal carcinoma cells. […] And all NHL subtypes were sensitive in this assay, including mantle, follicular, Burkitt's, DLBCL-ABC, DLBCL-GCB, and double-hit DLBCL.

[3] = tested on: peripheral blood mononuclear cells; assay: Vacuole formation in peripheral blood mononuclear cells; type: cell-based; settings: treatment for 24 h
TOV-21G (Human ovarian) = assay: CellTiterGlo cell viability assay; type: cell-based; settings: TOV21G
[4] = tested on: CAPAN2 (Human pancreatic cancer); assay: CellTiterGlo cell viability assay; type: cell-based; settings: Capan-2
[5] = tested on: H358 (Human lung carcinoma); assay: CellTiterGlo cell viability assay; type: cell-based; settings: NCI-H358
[6] = tested on: AsPC1 (Human pancreatic cancer); assay: CellTiterGlo cell viability assay; type: cell-based
[7] = Phase 1 dose-escalation (QD/BID) study in normal healthy volunteers; type: in vivo, human; settings: for Cmax: oral, human plasma, mean
[8] = tested on: Raji (Human Burkitt's lymphoma); assay: CellTiterGlo cell viability assay; type: cell-based
Protocol: (§1) Briefly, test compounds (5 μl stock solution, 6×desired final well concentration) were dispensed to 384-well assay plates, TSC2−/− MEF cells (1000 cells per well in 25 μL of media) were added to the plates and the plates were incubated for 72 h (3 days) at 37° C. under an atmosphere of 5% CO2 in a humidified incubator for 3 days. Cell viability was determined with CellTiter-Glo® luminescence assay (Promega) per the manufacturer's instructions. Viability was expressed as a percentage of untreated control cells.
(§2) 35 cell lines were identified as sensitive to apilimod-induced cytotoxicity in this assay. The apilimod-sensitive cells included cells derived from several different cancers including non-Hodgkin's lymphoma, Hodgkin's lymphoma, colorectal cancer, and lung cancer. The most sensitive of those tested were non-Hodgkin's Lymphoma (NHL) cell lines. […] The only NHL subtype not sensitive in this assay was follicular.

HT-29 (Human Colorectal) = assay: CellTiterGlo cell viability assay; type: cell-based
Protocol: as §1, §2

[9] = tested on: MOLT-4 (Human T-cell leukemia); assay: CellTiterGlo cell viability assay; type: cell-based
Protocol: as §1, §2

[10] = tested on: NCI-H1650 (Human bronchioalveolar); assay: CellTiterGlo cell viability assay; type: cell-based
Protocol: as §1, §2

[11] = tested on: GA-10 (Human Burkitt's lymphoma); assay: CellTiterGlo cell viability assay; type: cell-based
Protocol: as §1, §2

[12] = tested on: Rec-1 (Human Mantle Cell Lymphoma); assay: CellTiterGlo cell viability assay; type: cell-based; settings: Rec1
Protocol: as §1, §2

[13] = tested on: CA46 (Human Burkitt's lymphoma); assay: CellTiterGlo cell viability assay; type: cell-based
Protocol: as §1, §2

[14] = tested on: L540 (Human Hodgkin's lymphoma); assay: CellTiterGlo cell viability assay; type: cell-based; settings: L-540
Protocol: as §1, §2

[15] = tested on: Namalwa (Human Burkitt's lymphoma); assay: CellTiterGlo cell viability assay; type: cell-based
Protocol: as §1, §2

[16] = tested on: JeKo-1 (Human Mantle Cell Lymphoma); assay: CellTiterGlo cell viability assay; type: cell-based
Protocol: as §1, §2

[17] = tested on: GRANTA-519 (Human Mantle Cell Lymphoma); assay: CellTiterGlo cell viability assay; type: cell-based
Protocol: as §1, §2

SW620 (Human Colorectal) = assay: CellTiterGlo cell viability assay; type: cell-based; settings: SW-620
Protocol: as §1, §2

[18] = tested on: HCT116 (Human colorectal cancer); assay: CellTiterGlo cell viability assay; type: cell-based; settings: HCT-116
Protocol: as §1, §2

[19] = tested on: CAMA1 (Human breast cancer); assay: CellTiterGlo cell viability assay; type: cell-based; settings: CAMA-1
Protocol: as §1, §2

[20] = tested on: COLO-205 (Human Colorectal); assay: CellTiterGlo cell viability assay; type: cell-based
Protocol: as §1, §2

[21] = tested on: H1734 (Human lung carcinoma); assay: CellTiterGlo cell viability assay; type: cell-based; settings: NCI-H1734
Protocol: as §1, §2

[22] = tested on: Daudi (Human Burkitt's lymphoma); assay: CellTiterGlo cell viability assay; type: cell-based
Protocol: as §1, §2

[23] = tested on: OCI-Ly19 (Human Diffuse Large B Cell Lymphoma -GCB); assay: CellTiterGlo cell viability assay; type: cell-based; settings: Human DLBCL-GCB
Protocol: as §1, §2

[24] = tested on: DOHH-2 (Human Follicular B Cell Lymphoma-GCB); assay: CellTiterGlo cell viability assay; type: cell-based; settings: Human Follicular Lymphoma - DLBCL-GCB
Protocol: as §1, §2

[25] = tested on: PANC1 (Human pancreatic cancer); assay: CellTiterGlo cell viability assay; type: cell-based; settings: PANC-1
[26] = tested on: synovial IL-12 and IL-23 expression; settings: patients with rheumatoid arthritis; Krauz et al. 2012; cited from earlier work
[27] = tested on: WSU-DLCL2 (Human Diffuse Large B Cell Lymphoma -GCB); assay: CellTiterGlo cell viability assay; type: cell-based
IL-12/IL-23 synthesis = settings: oral administration; patients with psoriasis; Wada et al. 2012; cited from earlier work
[28] = tested on: THP1 (Human acute monocytic leukemia); assay: CellTiterGlo cell viability assay; type: cell-based; settings: THP-1
[29] = tested on: SW1088 (Human neuroblastoma); assay: CellTiterGlo cell viability assay; type: cell-based
[30] = tested on: U-87 MG (Human neuroblastoma); assay: CellTiterGlo cell viability assay; type: cell-based

For `Cc1cccc(/C=N/Nc2cc(N3CCOCC3)nc(OCCc3ccccn3)n2)c1` [apilimod], the IC50 [1] was 10000 nM, the IC50 [2] was 15800 nM and the vacuole formation [3] was “induces vacuole formation”. The IC50 (TOV-21G (Human ovarian)) was 7000 nM, the IC50 [4] was > 2000 nM and the IC50 [5] was > 2000 nM. For the same compound, the IC50 [6] was > 2000 nM, the “share of the 24 hr period with plasma concentrations above 50 ng/ml” value ([7]; 50 ng/ml equal to 125 nM, 105 mg BID) was ~50% and the safety profile ([7]; 105 mg BID, humans) was “tolerable safety profile”. It also gave a Cmax ([7]; Treatment E: 70 mg ×2, total 140 mg, read-out: PM Cmax) of 110 ng/mL, a Cmax ([7]; human, plasma, po, 7 mg, Treatment A: 7 mg once, total 7 mg, read-out: AM Cmax) of 10.8 ng/mL and a Cmax ([7]; human, plasma, po, 7 mg, Treatment B: 7 mg ×2, total 14 mg, read-out: AM Cmax) of 12.7 ng/mL. For the same compound, the Cmax ([7]; human, plasma, po, 7 mg, Treatment B: 7 mg ×2, total 14 mg, read-out: PM Cmax) was 8.18 ng/mL, the Cmax ([7]; human, plasma, po, 14 mg, Treatment C: 14 mg ×2, total 28 mg, read-out: AM Cmax) was 18.2 ng/mL and the Cmax ([7]; human, plasma, po, 14 mg, Treatment C: 14 mg ×2, total 28 mg, read-out: PM Cmax) was 10.7 ng/mL. It also gave a Cmax ([7]; human, plasma, po, 35 mg, Treatment D: 35 mg ×2, total 70 mg, read-out: AM Cmax) of 71.8 ng/mL, a Cmax ([7]; human, plasma, po, 35 mg, Treatment D: 35 mg ×2, total 70 mg, read-out: PM Cmax) of 63 ng/mL and a Cmax ([7]; human, plasma, po, 70 mg, Treatment E: 70 mg ×2, total 140 mg, read-out: AM Cmax) of 145 ng/mL. For the same compound, the Cmax ([7]; human, plasma, po, 105 mg, Treatment F: 105 mg ×2, total 210 mg, read-out: AM Cmax) was 192 ng/mL, the Cmax ([7]; human, plasma, po, 105 mg, Treatment F: 105 mg ×2, total 210 mg, read-out: PM Cmax) was 149 ng/mL and the IC50 [8] was > 10000 nM. For the same compound, the IC50 (HT-29 (Human Colorectal)) was > 10000 nM, the IC50 [9] was 3300 nM and the IC50 [10] was > 20000 nM. The IC50 [11] was 382 nM, the IC50 [12] was 300 nM and the IC50 [13] was > 10000 nM. For the same compound, the IC50 [14] was > 1000 nM, the IC50 [15] was 600 nM and the IC50 ([16]; Homo sapiens, 72 h, 3-day CellTiterGlo assay) was < 100 nM. The IC50 ([16]; Human Mantle Cell Lymphoma) was 70 nM, the IC50 [17] was > 10000 nM and the IC50 (SW620 (Human Colorectal)) was 90 nM. For the same compound, the IC50 [18] was 125 nM, the IC50 [19] was > 10000 nM and the IC50 [20] was 380 nM. For the same compound, the IC50 [21] was 1500 nM, the IC50 [22] was 200 nM and the IC50 [23] was 380 nM. For the same compound, the IC50 [24] was 700 nM, the IC50 [25] was > 2000 nM and the “effect on synovial IL-12 and IL-23 expression” value [26] was “failed to alter synovial IL-12 and IL-23 expression”. The IC50 ([27]; Homo sapiens, WSUDLCL2, 72 h, three-day assay, read-out: IC50 (nM) WSU-DLCL2) was 54 nM, the IC50 ([27]; WSUDLCL2, Human DLBCL-GCB, read-out: IC50) was 160 nM and the immunomodulatory activity (IL-12/IL-23 synthesis) was “showed immunomodulatory activity”. The IC50 [28] was > 10000 nM, the IC50 [29] was > 10000 nM and the IC50 [30] was > 10000 nM.
